Results reported in ChEMBL document CHEMBL4251556, “Selective kappa opioid antagonists for treatment of addiction, are we there yet?” (Eur J Med Chem, 2017).
Residues, ends and D or L forms follow the SMILES beside them.

Key:
Oryctolagus cuniculus = species: Oryctolagus cuniculus; assay: Antagonist activity at KOR in Japanese white rabbit vas deferens assessed as inhibition of asimadoline-induced suppression of electric field stimulated twitch response after 30 mins
[1] = molecular target: G_PROTEIN_RECEP_F1_2 domain-containing protein (Cavia porcellus, UniProt A0A286XTF2); assay: Displacement of [3H]DPDPE from delta-opioid receptor in guinea pig brain membranes after 30 mins by scintillation counting method; type: cell membranes, Membrane
Homo sapiens [2] = species: Homo sapiens; assay: Selectivity ratio of Ki for delta opioid receptor (unknown origin) to Ki for kappa opioid receptor (unknown origin)
Homo sapiens [3] = species: Homo sapiens; assay: Selectivity ratio of Ki for Mu opioid receptor (unknown origin) to Ki for kappa opioid receptor (unknown origin)
[4] = molecular target: T1, Kappa-type opioid receptor (Homo sapiens, UniProt P41145); assay: Antagonist activity at kappa opioid receptor (unknown origin); type: functional
Mu-type opioid receptor [5] = molecular target: T2, Mu-type opioid receptor (Rattus norvegicus, UniProt P33535); assay: Displacement of [3H]DAMGO from mu-opioid receptor in rat brain membranes after 2 hrs; type: cell membranes, Membrane
[6] = molecular target: Delta-type opioid receptor (Rattus norvegicus, UniProt P33533); assay: Displacement of [3H]DADLE from delta-opioid receptor in rat brain membranes after 2 hrs; type: cell membranes, Membrane
[7] = molecular target: Kappa-type opioid receptor (Cavia porcellus, UniProt P41144); assay: Displacement of [3H]U69,593 from kappa opioid receptor in guinea pig brain membranes after 2 hrs; type: cell membranes, Membrane
[8] = Selectivity ratio of Ki for delta-opioid receptor in rat brain membranes to Ki for kappa opioid receptor in guinea pig brain membranes; type: cell membranes
[9] = Selectivity ratio of Ki for mu-opioid receptor in rat brain membranes to Ki for kappa opioid receptor in guinea pig brain membranes; type: cell membranes
Rattus norvegicus = assay: […] activity in po dosed rat assessed as reversal of U-69593-induced pain response; type: functional
[10] = molecular target: Delta-type opioid receptor (Homo sapiens, UniProt P41143); assay: Antagonist activity at human delta opioid receptor expressed in CHO cells assessed as stimulation of [35S]GTPgammaS; type: functional, cell-based
Mu-type opioid receptor [11] = molecular target: Mu-type opioid receptor (Homo sapiens, UniProt P35372); assay: Antagonist activity at human mu opioid receptor expressed in CHO cells assessed as stimulation of [35S]GTPgammaS; type: functional, cell-based
[12] = molecular target: T1, Kappa-type opioid receptor; assay: Antagonist activity at human kappa opioid receptor expressed in CHO cells assessed as stimulation of [35S]GTPgammaS; type: functional, cell-based
[13] = Selectivity ratio of Ki for rat mu-opioid receptor in expressed in rat C6 cell membranes to Ki for human kappa opioid receptor expressed in CHO cell membranes; type: cell-based
Mu-type opioid receptor [14] = molecular target: T2, Mu-type opioid receptor; assay: Displacement of [3H]-diprenorphine from rat mu-opioid receptor in expressed in rat C6 cell membranes after 1 hr
[15] = molecular target: T1, Kappa-type opioid receptor; assay: Displacement of [3H]-diprenorphine from human kappa opioid receptor expressed in CHO cells after 1 hr; type: cell-based
[16] = molecular target: Kappa-type opioid receptor (Cavia porcellus) (UniProt P41144); assay: Displacement of [3H]CI-977 from kappa opioid receptor in guinea pig brain membranes after 2 hrs by scintillation counting method; type: cell membranes; details: Membrane, concentration not given here
Kappa-type opioid receptor (Cavia porcellus), sequence (P41144 whole entry): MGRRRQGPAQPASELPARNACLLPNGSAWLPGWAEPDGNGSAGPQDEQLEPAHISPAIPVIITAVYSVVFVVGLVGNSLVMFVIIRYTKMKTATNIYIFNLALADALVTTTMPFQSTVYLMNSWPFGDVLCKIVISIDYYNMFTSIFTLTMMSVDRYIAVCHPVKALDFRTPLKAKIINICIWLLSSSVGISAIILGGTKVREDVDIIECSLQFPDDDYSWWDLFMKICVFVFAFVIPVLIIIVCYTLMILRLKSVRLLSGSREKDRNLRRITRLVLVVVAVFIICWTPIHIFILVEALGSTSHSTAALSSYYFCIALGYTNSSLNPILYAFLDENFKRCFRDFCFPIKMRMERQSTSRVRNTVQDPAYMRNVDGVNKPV

T2 sequence (P33535 whole entry): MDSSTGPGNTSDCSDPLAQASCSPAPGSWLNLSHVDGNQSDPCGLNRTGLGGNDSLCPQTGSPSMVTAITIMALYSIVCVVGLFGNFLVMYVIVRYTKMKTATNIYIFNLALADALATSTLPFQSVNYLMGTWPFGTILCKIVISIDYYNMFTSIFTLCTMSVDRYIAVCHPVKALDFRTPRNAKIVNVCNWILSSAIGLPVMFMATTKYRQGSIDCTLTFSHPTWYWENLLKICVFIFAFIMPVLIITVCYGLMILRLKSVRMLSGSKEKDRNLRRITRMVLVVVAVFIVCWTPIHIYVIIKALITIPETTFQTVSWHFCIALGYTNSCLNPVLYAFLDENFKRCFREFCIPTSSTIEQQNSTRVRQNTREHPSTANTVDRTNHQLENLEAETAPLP
T1 sequence (P41145 whole entry): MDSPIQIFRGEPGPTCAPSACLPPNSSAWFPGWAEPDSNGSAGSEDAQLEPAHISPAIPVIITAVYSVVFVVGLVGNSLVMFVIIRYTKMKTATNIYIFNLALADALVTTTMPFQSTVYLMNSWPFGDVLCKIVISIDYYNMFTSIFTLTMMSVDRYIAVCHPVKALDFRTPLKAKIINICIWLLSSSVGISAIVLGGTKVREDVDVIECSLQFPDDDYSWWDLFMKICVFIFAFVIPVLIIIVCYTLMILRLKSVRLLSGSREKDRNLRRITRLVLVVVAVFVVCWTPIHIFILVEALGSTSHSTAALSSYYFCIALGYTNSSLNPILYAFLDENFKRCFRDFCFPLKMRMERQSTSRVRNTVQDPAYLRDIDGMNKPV
Kappa-type opioid receptor (Cavia porcellus, UniProt P41144), sequence (P41144 whole entry): as the sequence (P41144 whole entry) above
Mu-type opioid receptor (Homo sapiens, UniProt P35372), sequence (P35372 whole entry): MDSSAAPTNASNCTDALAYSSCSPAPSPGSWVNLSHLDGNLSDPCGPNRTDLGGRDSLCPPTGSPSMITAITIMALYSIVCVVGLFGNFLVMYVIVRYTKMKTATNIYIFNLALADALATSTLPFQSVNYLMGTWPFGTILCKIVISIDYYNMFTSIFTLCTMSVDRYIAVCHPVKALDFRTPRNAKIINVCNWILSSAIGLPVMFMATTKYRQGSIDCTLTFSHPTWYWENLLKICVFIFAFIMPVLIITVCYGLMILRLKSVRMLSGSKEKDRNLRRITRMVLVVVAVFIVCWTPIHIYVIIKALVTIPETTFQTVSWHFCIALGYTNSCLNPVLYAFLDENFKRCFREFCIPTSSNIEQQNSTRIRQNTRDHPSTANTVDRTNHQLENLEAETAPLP
Delta-type opioid receptor (Homo sapiens, UniProt P41143), sequence (P41143 whole entry): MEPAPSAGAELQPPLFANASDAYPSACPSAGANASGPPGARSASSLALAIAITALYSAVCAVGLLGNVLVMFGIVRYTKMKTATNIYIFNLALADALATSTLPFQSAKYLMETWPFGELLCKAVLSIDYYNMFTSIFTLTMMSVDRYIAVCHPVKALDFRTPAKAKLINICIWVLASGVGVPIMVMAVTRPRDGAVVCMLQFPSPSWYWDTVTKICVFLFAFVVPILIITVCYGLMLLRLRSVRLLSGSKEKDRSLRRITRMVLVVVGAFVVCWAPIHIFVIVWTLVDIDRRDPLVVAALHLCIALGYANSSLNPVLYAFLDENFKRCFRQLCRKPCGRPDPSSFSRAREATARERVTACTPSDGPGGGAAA
G_PROTEIN_RECEP_F1_2 domain-containing protein, sequence (A0A286XTF2 whole entry): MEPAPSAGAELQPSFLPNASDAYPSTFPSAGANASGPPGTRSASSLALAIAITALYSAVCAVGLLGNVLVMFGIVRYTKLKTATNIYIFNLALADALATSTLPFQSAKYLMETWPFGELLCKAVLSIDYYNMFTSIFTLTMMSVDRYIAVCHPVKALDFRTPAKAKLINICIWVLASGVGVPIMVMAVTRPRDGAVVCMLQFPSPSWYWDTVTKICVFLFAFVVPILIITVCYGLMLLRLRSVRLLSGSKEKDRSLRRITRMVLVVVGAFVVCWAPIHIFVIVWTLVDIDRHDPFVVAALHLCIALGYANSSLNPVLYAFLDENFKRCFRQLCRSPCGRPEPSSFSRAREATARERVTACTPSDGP
Delta-type opioid receptor (Rattus norvegicus, UniProt P33533), sequence (P33533 whole entry): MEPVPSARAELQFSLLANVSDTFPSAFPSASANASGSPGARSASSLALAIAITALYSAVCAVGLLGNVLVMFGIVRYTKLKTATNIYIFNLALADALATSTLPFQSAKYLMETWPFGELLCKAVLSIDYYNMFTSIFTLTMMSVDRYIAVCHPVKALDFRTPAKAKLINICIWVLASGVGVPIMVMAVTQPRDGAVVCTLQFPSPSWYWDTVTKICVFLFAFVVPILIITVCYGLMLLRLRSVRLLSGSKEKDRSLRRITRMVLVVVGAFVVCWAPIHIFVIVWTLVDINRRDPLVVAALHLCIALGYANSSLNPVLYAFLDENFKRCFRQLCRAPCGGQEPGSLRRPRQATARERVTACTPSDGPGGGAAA

Compound: O=C1N[C@@H](Cc2ccccc2)C(=O)N2CCC[C@@H]2C(=O)N[C@@H](Cc2ccccc2)C(=O)N[C@H]1Cc1c[nH]c2ccccc12 (HELM PEPTIDE1{F.W.F.[dP]}$PEPTIDE1,PEPTIDE1,1:R1-4:R2$$$V2.0)
- ED50 (Oryctolagus cuniculus): 1300 nM
- IC50 [1]: 2600 nM

Compound: CC(=O)N[C@@H](Cc1ccccc1)C(=O)N[C@@H](Cc1ccccc1)C(=O)N[C@@H](Cc1ccccc1)C(=O)N[C@@H](CCCNC(=N)N)C(=O)N[C@@H](CC(C)C)C(=O)N[C@@H](CCCNC(=N)N)C(=O)N[C@@H](CCCNC(=N)N)C(=O)N[C@H](C)C(=O)N[C@@H](CCCNC(=N)N)C(=O)N1CCC[C@H]1C(=O)N[C@@H](CCCCN)C(N)=O (HELM PEPTIDE1{[ac].F.F.F.R.L.R.R.[dA].R.P.K.[am]}$$$$V2.0)
- Ratio Ki (Homo sapiens [2]): 583
- Ratio Ki (Homo sapiens [3]): 174
- Ki [4]: 10 nM

Compound: CC(C)[C@@H](CN1CC[C@@](C)(c2cccc(O)c2)[C@@H](C)C1)NC(=O)[C@H]1Cc2ccc(O)cc2CN1 [JDTIC]
- Ki (Mu-type opioid receptor [5]): 2.16 nM
- Ki [6]: > 300 nM

Compound: CC(=O)N1Cc2cc(O)ccc2C[C@@H]1C(=O)N[C@H](CN1CC[C@@](C)(c2cccc(O)c2)[C@@H](C)C1)C(C)C
- Ki [7]: 164 nM
- Ratio Ki [8]: > 34
- Ratio Ki [9]: 5

Compound: Cc1cc(C)cc([C@@H]2CCCN2Cc2ccc(Oc3ccc(C(N)=O)cc3F)cc2)c1 [ATICAPRANT]
- ED50 (Rattus norvegicus): 0.4 mg/kg

Compound: CC(C)[C@@H](CN1CC[C@@](C)(c2cccc(O)c2)[C@@H](C)C1)NC(=O)[C@H]1Cc2ccc(O)cc2CN1C(=O)CN(C)C
- Ratio Ki [8]: > 219
- Ratio Ki [9]: 11

Compound: N=C(N)NCCC[C@@H]1NC(=O)[C@H](CCCNC(=N)N)NC(=O)[C@H](NC(=O)[C@H](Cc2ccccc2)NC(=O)CNC(=O)CNC(=O)[C@H](Cc2ccc(O)cc2)NCc2ccccc2)CC(=O)NC[C@@H](C(=O)N[C@@H](CCCNC(=N)N)C(=O)N2CCC[C@H]2C(=O)N[C@@H](CCCCN)C(N)=O)NC1=O
- Ki [4]: 30 nM

Compound: CCCCC(=N)NCCc1ccc2c(c1)C1C[C@@]3(O)[C@H]4Cc5ccc(O)c6c5[C@@]3(CCN4CC3CC3)[C@@H](O6)C1N2 (some centres not stated)
- Ki [10]: 3.31 nM
- Ki (Mu-type opioid receptor [11]): 5.33 nM
- Ki [12]: 0.17 nM

Compound: C[C@H]1CN(CCCOC(=O)[C@H]2Cc3ccc(O)cc3CN2)CC[C@@]1(C)c1cccc(O)c1
- Ratio Ki [13]: 0.54
- Ki (Mu-type opioid receptor [14]): 93 nM
- Ki [15]: 174 nM

Compound: CC(C)[C@@H](CN1CC[C@@](C)(c2cccc(O)c2)[C@@H](C)C1)NC(=O)[C@H]1Cc2ccc(O)cc2CN1C
- Ratio Ki [8]: 11600
- Ratio Ki [9]: 700

Compound: CC(C)CNCc1ccc(-c2ccccc2S(=O)(=O)N2CCCC2)cc1
- inhibition [16]: 82%

Compound: CCOC(=O)C(CN1CC[C@@](C)(c2cccc(O)c2)[C@@H](C)C1)OC(=O)[C@H]1Cc2ccc(O)cc2CN1 (some centres not stated)
- Ki [15]: 2.39 nM

Compound: C[C@H]1CN(CCOC(=O)[C@H]2Cc3ccc(O)cc3CN2)CC[C@@]1(C)c1cccc(O)c1
- Ratio Ki [13]: 0.72
- Ki (Mu-type opioid receptor [14]): 97.7 nM
- Ki [15]: 135 nM
